# From ChEMBL document CHEMBL3526083, “Prediction of relative in vivo metabolite exposure from in vitro data using two model drugs: dextromethorphan and omeprazole” (Drug Metab Dispos, 2012)
# What was measured:
# Liver microsome [1] = assay: Drug metabolism in human liver metabolism assessed as omeprazole sulfone formation measured as plasma fraction unbound; format: ADME, cell-free
# Liver microsome [2] = assay: Drug metabolism in human liver metabolism assessed as omeprazole sulfone formation measured as microsomal fraction unbound per mg of microsomal protein; format: ADME; conditions: microsomes
# Liver microsome [3] = assay: Drug metabolism in human liver metabolism assessed as omeprazole sulfone formation measured as intrinsic unbound clearance per mg of microsomal protein; format: ADME; conditions: microsomes
# Liver microsome [4] = assay: Drug metabolism in human liver metabolism assessed as omeprazole sulfone depletion measured as intrinsic unbound clearance per mg of microsomal protein; format: ADME; conditions: microsomes
# Liver microsome [5] = assay: Drug metabolism in human liver metabolism assessed as omeprazole sulfone depletion measured as microsomal fraction unbound; format: ADME; conditions: microsomes
# Hepatocyte [6] = assay: Drug metabolism in human hepatocytes assessed as omeprazole sulfone formation measured per 10^6 cells as intrinsic unbound clearance; format: ADME, cell-based
# Hepatocyte [7] = assay: Drug metabolism in human hepatocytes assessed as 5OH-omeprazole depletion measured per 10^6 cells as intrinsic unbound clearance; format: ADME, cell-based
# Liver microsome [8] = assay: Drug metabolism in human liver metabolism assessed as omeprazole sulfone depletion measured as plasma fraction unbound; format: ADME, cell-free
# Liver microsome [9] = assay: Drug metabolism in human liver metabolism assessed as omeprazole sulfone formation; format: ADME, tissue-based
# Liver microsome [10] = assay: Drug metabolism in human liver metabolism assessed as 5OH-omeprazole formation measured per mg of microsomal protein; format: ADME; conditions: microsomes
# Liver microsome [11] = assay: Drug metabolism in human liver metabolism assessed as 5OH-omeprazole formation measured as microsomal fraction unbound; format: ADME; conditions: microsomes
# Liver microsome [12] = assay: Drug metabolism in human liver metabolism assessed as 5OH-omeprazole formation measured as intrinsic clearance per mg of microsomal protein; format: ADME; conditions: microsomes
# Hepatocyte [13] = assay: Drug metabolism in human hepatocytes assessed as omeprazole sulfone depletion measured per 10^6 cells as intrinsic unbound clearance; format: ADME, cell-based
# Liver microsome [14] = assay: Drug metabolism in human liver metabolism assessed as omeprazole sulfone depletion measured as intrinsic clearance per mg of microsomal protein; format: ADME; conditions: microsomes
# Liver microsome [15] = assay: Drug metabolism in human liver metabolism assessed as 5OH-omeprazole formation measured as intrinsic unbound clearance per mg of microsomal protein; format: ADME; conditions: microsomes
# Liver microsome [16] = assay: Drug metabolism in human liver metabolism assessed as 5OH-omeprazole formation measured as plasma fraction unbound; format: ADME, cell-free
# Hepatocyte [17] = assay: Drug metabolism in human hepatocytes assessed as 5OH-omeprazole formation measured per 10^6 cells as intrinsic unbound clearance; format: ADME, cell-based
# Liver microsome [18] = assay: Drug metabolism in human liver metabolism assessed as omeprazole sulfone formation measured per mg of microsomal protein; format: ADME; conditions: microsomes
# Liver microsome [19] = assay: Drug metabolism in human liver metabolism assessed as omeprazole sulfone formation measured as intrinsic clearance per mg of microsomal protein; format: ADME; conditions: microsomes
# Liver microsome [20] = assay: Drug metabolism in human liver metabolism assessed as 5OH-omeprazole formation; format: ADME, tissue-based
# Homo sapiens = species on record: Homo sapiens; assay: Ratio of AUC for compound to omeprazolein human; format: ADME, organism-based; conditions: in vivo
# Liver microsome [21] = assay: Drug metabolism in human liver microsomes assessed as dextrorphan formation measured as plasma fraction unbound; format: ADME, cell-free
# Liver microsome [22] = assay: Drug metabolism in human liver microsomes assessed as dextrorphan formation measured per mg of microsomal protein; format: ADME
# Liver microsome [23] = assay: Drug metabolism in human liver microsomes assessed as dextrorphan formation measured as intrinsic clearance; format: ADME
# Liver microsome [24] = assay: Drug metabolism in human liver microsomes assessed as dextrorphan formation measured as intrinsic unbound clearance; format: ADME
# Liver microsome [25] = assay: Drug metabolism in human liver microsomes assessed as dextrorphan formation; format: ADME
# Liver microsome [26] = assay: Drug metabolism in human liver microsomes assessed as dextrorphan formation measured as microsomal fraction unbound; format: ADME
compound,measurement,setting,value
COc1ccc2[nH]c([S+]([O-])Cc3ncc(C)c(OC)c3C)nc2c1 (stereo not drawn) [OMEPRAZOLE],Fu,Liver microsome [1],0.061
same,Fu,Liver microsome [2],0.86
same,CL free,Liver microsome [3],7.7 µL/min/mg
same,CL free,Liver microsome [4],35 µL/min/mg
same,Fu,Liver microsome [5],0.92
same,CL free,Hepatocyte [6],3.6 uL/hr/10^6cells
same,CL free,Hepatocyte [7],100 uL/hr/10^6cells
same,Fu,Liver microsome [8],0.0048
same,Km,Liver microsome [9],11 µM
same,Vmax,Liver microsome [10],0.11 nmol/min/mg
same,Fu,Liver microsome [11],0.86
same,CLint,Liver microsome [12],7.1 µL/min/mg
same,CL free,Hepatocyte [13],48 uL/hr/10^6cells
same,CLint,Liver microsome [14],32 µL/min/mg
same,CL free,Liver microsome [15],8.2 µL/min/mg
same,Fu,Liver microsome [16],0.061
same,CL free,Hepatocyte [17],55 uL/hr/10^6cells
same,Vmax,Liver microsome [18],0.074 nmol/min/mg
same,CLint,Liver microsome [19],6.6 µL/min/mg
same,Km,Liver microsome [20],16 µM
COc1ccc2[nH]c([S+]([O-])Cc3ncc(CO)c(OC)c3C)nc2c1 (stereo not drawn),Ratio AUC,Homo sapiens,0.48
COc1ccc2c(c1)[C@]13CCCC[C@@H]1[C@H](C2)N(C)CC3 [DEXTROMETHORPHAN],Fu,Liver microsome [21],0.72
same,Vmax,Liver microsome [22],0.066 nmol/min
same,CLH,Liver microsome [23],13 µL/min/mg
same,CL free,Liver microsome [24],14 µL/min/mg
same,Km,Liver microsome [25],5 µM
same,Fu,Liver microsome [26],0.93
COc1ccc2nc(S(=O)(=O)Cc3ncc(C)c(OC)c3C)[nH]c2c1 [OMEPRAZOLE SULFONE],Ratio AUC,Homo sapiens,0.85
